The text below walks through data of BindingDB's records for doi:10.1021/jm00128a025 (Roche Research Center, 1989).

SMILES strings stand for the structures.

Assay [1] is described as follows: Inhibition of platelet-activating factor receptor binding activity in dog platelets using [3H]-PAF as radioligand.
Assay in assay [2]: as above
The source holds these as a separate data set.

As for `COc1cccc(-c2ccc(C(=O)N[C@H](C)CCCc3cccnc3)cc2)c1`, the IC50 in assay [1] was 0.02 µM.
On to `Cc1ccc(-c2ccc(C(=O)NCCCCc3cccnc3)cc2)cc1C`, for which the IC50 in assay [1] came to 0.2 µM.
For the compound `COc1ccc(-c2ccc(C(=O)NCCCCc3cccnc3)cc2Br)cc1OC`, in assay [1], the IC50 is 0.22 µM.
On the same count and under the same terms, the same measure for `COc1ccc(-c2ccc(C(=O)NCCCCc3cccnc3)cc2-c2ccc(OC)cc2)cc1`: 0.125 µM; for `CCc1cc(C(=O)N[C@H](C)CCCc2cccnc2)ccc1-c1ccc(OC)c(OC)c1`: 0.004 µM.
Same read-out and setting: with `COc1ccc(-c2ccc(C(=O)NCCCCc3cccnc3)cc2[N+](=O)[O-])cc1OC` the figure was 0.2 µM; with `COc1ccc(-c2ccc(C(=O)NCCCCc3cccnc3)cc2)cc1OC`, 0.4 µM.
`COc1ccc(-c2ccc(C(=O)N[C@H](C)CCCc3cccnc3)cc2Br)cc1OC` returned an IC50 in assay [1] of 0.18 µM.
Same read-out and setting: the same measure for `C=CCc1cc(C(=O)N[C@H](C)CCCc2cccnc2)ccc1-c1ccc(OC)c(OC)c1`: 0.08 µM.
On to `O=C(NCCCCc1cccnc1)c1ccc(-c2cccc(OC3=CC=CC=CC3)c2)cc1`, for which the IC50 in assay [2] stood at 0.7 µM.
For the compound `COc1ccc(-c2ccc(C(=O)NCCCCc3cccnc3)cc2OC)cc1OC`, in assay [1], the IC50 stood at 0.3 µM.
With `CCCc1cc(C(=O)N[C@H](C)CCCc2cccnc2)ccc1-c1ccc(OC)c(OC)c1`, the IC50 in assay [1] worked out at 0.05 µM.
The same measure, in the same setting: with `COc1ccc(-c2ccc(C(=O)N[C@H](C)CCCc3cccnc3)cc2[N+](=O)[O-])cc1OC` the figure was 0.2 µM.
Still for that read-out and setting: with `O=C(NCCCCc1cccnc1)c1ccc(-c2cccc(O)c2)cc1` the figure was 0.3 µM; with `COc1ccc(-c2ccc(C(=S)N[C@H](C)CCCc3cccnc3)cc2)cc1OC`, 0.06 µM; with `C[C@H](CCCc1cccnc1)NC(=O)c1ccc(-c2ccccc2)c(-c2ccccc2)c1`, 0.05 µM.
Compound `Cc1cccc(-c2ccc(C(=O)NCCCCc3cccnc3)cc2)c1` displayed an IC50 in assay [1] of 0.5 µM.
`COc1cccc(-c2ccc(C(=O)NCCCCc3cccnc3)cc2)c1` returned an IC50 in assay [1] of 0.28 µM.
Compound `O=C(NCCCCc1cccnc1)c1ccc(-c2cccc(F)c2)c(F)c1` showed an IC50 in assay [1] of 2.1 µM.

A word on the IC50: it is the concentration that inhibits the measured activity by half. Low values mean higher potency, high ones lower potency.
